The text below walks through data of patent EP4494466A1, “SULFUR-CONTAINING COMPOUNDS AND USE THEREOF” (Consejo Superior de Investigaciones Científicas (CSIC), priority 2023, dated 2025).

The subject of one assay is H. lusitanicum. As to the kind of experiment: Ixodicidal activity on larvae, cellulose contact toxicity. It is filed as in vivo, Hyalomma lusitanicum. The following applies: 24 h contact with treated cellulose, Probit Analysis. As to the method: H. lusitanicum engorged female ticks were collected in central Spain (Finca La Garganta, Ciudad Real) from their host (deer) and maintained at 22-24 °C and 70% RH until oviposition and egg hatching. Resulting larvae (4-6 weeks old) were used for the bioassays (Galisteo Pretel, A. et al. Germacrone derivatives as new insecticidal and acaricidal compounds: a structure-activity relationship. Mol. 2019, 24). Briefly, 50 µL of test solution were added to 25 mg of powdered cellulose at different concentrations (initial concentration of 20 mg/ml) and the solvent was evaporated. For each test, three replicates with 20 larvae each were used. Dead ticks were counted after 24 h of contact with the treated cellulose at the environmental conditions described, using a binocular magnifying glass. The larvicidal activity data are presented as percent mortality corrected according to Schneider-Orelli's formula (Schneider-Orelli, O. Entomologisches praktikum: Einführung in die land- und forstwirtschaftliche Insektenkunde; aus dem entomologischen institut der eidgenössischen technischen hochschule in Zürich; Sauerländer, 1947). Effective lethal doses (LC50 and LC90, the concentration that kills 50% or 90% of the organisms, respectively) were calculated by Probit Analysis (5 serial dilutions, STATGRAPHICS Centurion XVI, version 16.1.02, Statgraphics Technologies, Inc, P.O. Box 134, The Plains, Virginia 20198, USA).

The next assay concerns Aspergillus niger. The experiment in a line: Antifungal activity, spore germination inhibition growth assay (MTT). It is filed as cell-based. The following applies: A. niger spores, 24 h incubation at 28 °C, 4 replicates. The protocol: (§1) The fungal species Aspergillus niger and Botrytis cinerea came from the fungal collection of institute de Ciencias Agrarias-CSIC, Madrid, Spain where they are maintained. The antifungal activity of the hydrolate extract and fractions were determined using a modified spore germination inhibition growth assay (Sainz, P. et al. Chemical composition and biological activities of Artemisia pedemontana subsp. assoana essential oils and hydrolate. Biomol. 2019, 9). The hydrolate extract or fractions were dissolved in dimethyl sulfoxide (DMSO) at 1% and evaluated at the final concentrations indicated.
(§2) The spore suspensions were 7.5 × 10^5 cells/mL in NaCl 0.9% for A. niger and 1 × 10^7 cells/mL in distilled water for B. cinerea. Amphotericin B (5 µg/mL) was used as a positive control. The samples and spore suspensions (4 replicates) were placed on 96-well plates and incubated for 24 h (28 °C for A. niger and 25 °C for B. cinerea). After the incubation process, 25 µL of an MTT (5 mg/mL) plus menadione (1 mM) solution in RMPIMOPS were added, the plates were incubated again for 3 h, the medium was removed, 200 µL of acidic isopropanol (95% isopropanol and 5% 1 M HCl) was added, and the plates were incubated for another 30 min. The absorbance was read at 490 nm in an Elisa reader. The IC50 values (the effective dose to give 50% inhibition) were calculated by a regression curve of % spore germination inhibition on log dose.

Another assay concerns Botrytis cinerea. The assay is described as above. It is filed as cell-based. The following applies: B. cinerea spores, 24 h incubation at 25 °C, 4 replicates. As to the method: as §1, §2

Turning to `O=CC1=CCCSC1` [Compound 3, 5,6-dihydro-2H-thiopyran-3-carbaldehyde], in the assay with H. lusitanicum, the “LD90 (95% Confidence Limits)” value is recorded as 3.57 (3.20-4.23) µg/mg. The “LD50 (95% Confidence Limits)” value was 16.96 (7.98-36.03) µg/mL in the assay on Aspergillus niger and 8.79 (5.36-14.43) µg/mL with Botrytis cinerea.
For `C=CCSCC(C=O)=CC` [Compound 1, 2-((allylthio)methyl)but-2-enal], the “LD50 (95% Confidence Limits)” value was 8.42 (7.72-10.07) µg/mg in the assay with H. lusitanicum and 78.07 (63.96-95.28)µg/mL with Aspergillus niger. The “LD90 (95% Confidence Limits)” value in the assay on H. lusitanicum is 15.62 (13.79-18.38) µg/mg.
